System: eye
Assay: Acute non-GLP IVT ocular tolerability and toxicity study of sunitinib malate (free drug)
Assay type: in vivo, pigmented rabbits
Conditions: single bilateral IVT injection, up to 7 days
Experimental: An acute, non-GLP IVT study was conducted to evaluate the ocular tolerability and toxicity of sunitinib malate (free drug) for up to 7 days following a single IVT injection. Sunitinib malate was formulated in phosphate buffered saline and injected bilaterally (0.1 mL) at 0.125 or 1.25 mg per eye.

CCN(CC)CCNC(=O)c1c(C)[nH]c(/C=C2\C(=O)Nc3ccc(F)cc32)c1C [sunitinib malate]
no-observed-adverse-effect-level (NOAEL) dose: 0.125 mg/eye
